According to ChEMBL document CHEMBL4229566, “Discovery of ( S)-3-(3-(3,5-Dimethyl-1 H-pyrazol-1-yl)phenyl)-4-(( R)-3-(2-(5,6,7,8-tetrahydro-1,8-naphthyridin-2-yl)ethyl)pyrrolidin-1-yl)butanoic Acid, a Nonpeptidic αvβ6 Integrin Inhibitor for the Inhaled Treatment of Idiopathic Pulmonary Fibrosis” (J Med Chem, 2018):
pIC50, pKi: −log10 of the molar value. One block for each compound: values may come before it.

Legend:
[1] = biological target: T1, Voltage-gated inwardly rectifying potassium channel KCNH2 (Homo sapiens, UniProt Q12809)
Description: Inhibition of human ERG expressed in HEK293 cells by Q-patch assay

[2] = biological target: T1, Voltage-gated inwardly rectifying potassium channel KCNH2; remark: listed apart in the source
Description: Inhibition of human ERG expressed in HEK293 cells by Barracuda automated patch clamp assay

physchem = conditions: buffer, pH 7.4, logD
[3] = Protein binding in dog plasma at 1 ug/ml after 4 hrs by rapid equilibrium dialysis and LC-MS/MS analysis; format: ADME, cell-free, Canis lupus familiaris; conditions: at 1 µg/mL, read-out: PPB (converted)
Rattus norvegicus [4] = test: Clearance in Wistar Han rat at 1 mg/kg, iv relative to liver blood flow; format: ADME, organism-based; conditions: in vivo
[5] = Drug uptake in Wistar Han rat lung at 6.23 mg/kg administered via nebulized inhalation for 60 mins and measured after 60 mins post inhalation period by MALDI-MS analysis; format: ADME, organism-based; conditions: in vivo, inhaled_or_intranasal, 1 h
[6] = Cmax in Wistar Han rat at 3 mg/kg, po via gavage; format: ADME, organism-based; design: dose 3 mg/kg, route oral; conditions: in vivo
in vivo [7] = conditions: Wistar Han, rat, inhaled or intranasal, 0.227 mg/kg
Description: Tmax in Wistar Han rat nebulized with dose level of 0.227 mg/kg

[8] = Protein binding in human plasma at 1 ug/ml after 4 hrs by rapid equilibrium dialysis and LC-MS/MS analysis; format: ADME, cell-free; conditions: at 1 µg/mL, read-out: PPB (converted)
[9] = Blood clearance in Wistar Han rat at 1 mg/kg, iv via 30 mins infusion followed by 2 day washout and re-dosed via oral gavage at 3 mg/kg; format: ADME, organism-based; conditions: whole blood
[10] = Volume of distribution at steady state in Wistar Han rat at 1 mg/kg, iv via 30 mins infusion followed by 2 day washout and re-dosed via oral gavage at 3 mg/kg; format: ADME, organism-based; conditions: in vivo, read-out: Vdss
[11] = Volume of distribution at steady state in Beagle dog blood at 1 mg/kg, iv dosed via 60 mins infusion followed by 6 days washout and re-dosed via oral gavage at 1 mg/kg; format: ADME, organism-based, Canis lupus familiaris; conditions: whole blood, read-out: Vdss
[12] = Protein binding in human blood at 1 ug/ml after 4 hrs by rapid equilibrium dialysis and LC-MS/MS analysis; format: ADME, tissue-based; conditions: at 1 µg/mL, read-out: PB (converted)
[13] = Drug uptake in Wistar Han rat lung at 6.23 mg/kg administered via nebulized inhalation for 60 mins and measured immediately after inhalation period by MALDI-MS analysis; format: ADME, organism-based; conditions: in vivo, inhaled_or_intranasal, 1 h
[14] = Tmax in Beagle dog blood at 1 mg/kg, iv dosed via 60 mins infusion followed by 6 days washout and re-dosed via oral gavage at 1 mg/kg; format: ADME, organism-based, Canis lupus familiaris; conditions: whole blood
[15] = Protein binding in human lung at 1 ug/ml after 4 hrs by rapid equilibrium dialysis and LC-MS/MS analysis; format: ADME, tissue-based; conditions: at 1 µg/mL, read-out: PB (converted)
[16] = Clearance in CD mouse hepatocytes at 0.5 uM up to 60 mins by LC-MS/MS analysis; format: ADME, cell-based, Hepatocyte; conditions: 1 h
[17] = Drug uptake in Wistar Han rat lung at 0.227 mg/kg administered via nebulisation up to 7 hrs; format: ADME, organism-based; conditions: in vivo, inhaled_or_intranasal
[18] = Terminal half life in Beagle dog blood at 1 mg/kg, iv dosed via 60 mins infusion followed by 6 days washout and re-dosed via oral gavage at 1 mg/kg; format: ADME, organism-based, Canis lupus familiaris; conditions: whole blood, read-out: beta t1/2
[19] = Protein binding in rat liver at 1 ug/ml after 4 hrs by rapid equilibrium dialysis and LC-MS/MS analysis; format: ADME, tissue-based; conditions: at 1 µg/mL, read-out: PB (converted)
[20] = Clearance in CD mouse liver microsomes at 0.5 uM up to 45 mins by LC-MS/MS analysis; format: ADME, microsome; conditions: 0.75 h
[21] = Clearance in Wistar Han rat liver microsomes at 0.5 uM up to 45 mins by LC-MS/MS analysis; format: ADME, microsome; conditions: 0.75 h
[22] = Oral bioavailability in Wistar Han rat at 3 mg/kg via gavage; format: ADME, organism-based; conditions: in vivo
[23] = Drug uptake in lung of C57Bl/6J mouse at 15 mg/kg/day, sc administered via continuous infusion through mini-pumps measured within 24 hrs; format: ADME, organism-based; conditions: in vivo
[24] = Oral bioavailability in Beagle dog at 1 mg/kg via gavage; format: ADME, organism-based, Canis lupus familiaris; conditions: in vivo
[25] = Protein binding in mouse lung at 1 ug/ml after 4 hrs by rapid equilibrium dialysis and LC-MS/MS analysis; format: ADME, tissue-based; conditions: at 1 µg/mL, read-out: PB (converted)
in vivo [26] = conditions: Wistar Han, rat, po, 3 mg/kg
[27] = Bioavailability in Wistar Han rat at 1 mg/kg, it measured after 12 hrs post dose; format: ADME, organism-based; conditions: in vivo, inhaled or intranasal
[28] = Protein binding in rat blood at 1 ug/ml after 4 hrs by rapid equilibrium dialysis and LC-MS/MS analysis; format: ADME, tissue-based; conditions: at 1 µg/mL, read-out: PB (converted)
[29] = Clearance in Beagle dog blood at 1 mg/kg, iv dosed via 60 mins infusion followed by 6 days washout and re-dosed via oral gavage at 1 mg/kg; format: ADME, organism-based, Canis lupus familiaris; conditions: whole blood
[30] = Drug uptake in Wistar Han rat lung at 0.227 mg/kg administered via nebulisation after 7 hrs; format: ADME, organism-based; conditions: inhaled or intranasal, read-out: Drug uptake
[31] = Terminal half life in Wistar Han rat at 1 mg/kg, iv dosed via 30 mins infusion; format: ADME, organism-based; conditions: in vivo, read-out: beta t1/2
[32] = Protein binding in dog blood at 1 ug/ml after 4 hrs by rapid equilibrium dialysis and LC-MS/MS analysis; format: ADME, tissue-based, Canis lupus familiaris; conditions: at 1 µg/mL, read-out: PB (converted)
[33] = Drug uptake in lung of C57Bl/6J mouse at 1.5 mg/kg/day, sc administered via continuous infusion through mini-pumps measured within 24 hrs; format: ADME, organism-based; conditions: in vivo
Canis familiaris [34] = test: Clearance in Beagle dog at 1 mg/kg, iv relative to liver blood flow; format: ADME, organism-based, Canis lupus familiaris; conditions: in vivo
[35] = Bioavailability in Wistar Han rat nebulized with dose level of 0.227 mg/kg; format: ADME, organism-based; conditions: in vivo, inhaled or intranasal
[36] = Protein binding in human blood at 1 ug/ml after 4 hrs by LC-MS/MS analysis; format: ADME, tissue-based; conditions: at 1 µg/mL, read-out: PB (converted)
[37] = Cmax in Beagle dog at 1 mg/kg, po via gavage; format: ADME, organism-based, Canis lupus familiaris; design: dose 1 mg/kg, route oral; conditions: in vivo
[38] = Clearance in human hepatocytes at 0.5 uM up to 60 mins by LC-MS/MS analysis; format: ADME, cell-based, Hepatocyte; conditions: 1 h
Canis familiaris [39] = test: Total renal clearance in Beagle dog at 1 mg/kg, iv; format: ADME, organism-based, Canis lupus familiaris; conditions: in vivo
[40] = Clearance in Beagle dog liver microsomes at 0.5 uM up to 45 mins by LC-MS/MS analysis; format: ADME, Canis lupus familiaris, microsome; conditions: 0.75 h
[41] = Clearance in human liver microsomes at 0.5 uM up to 45 mins by LC-MS/MS analysis; format: ADME, microsome; conditions: 0.75 h
[42] = Cmax in Wistar Han rat nebulized with dose level of 0.227 mg/kg; format: ADME, organism-based; design: dose 0.227 mg/kg; conditions: in vivo, inhaled or intranasal
Rattus norvegicus [43] = test: Biliary clearance in Wistar Han rat assessed as unchanged parent compound level at 1 mg/kg, iv relative to total blood clearance; format: ADME, organism-based; conditions: in vivo
Rattus norvegicus [44] = test: Total renal clearance in Wistar Han rat at 1 mg/kg, iv; format: ADME, organism-based; conditions: in vivo
[45] = Protein binding in mouse blood at 1 ug/ml after 4 hrs by rapid equilibrium dialysis and LC-MS/MS analysis; format: ADME, tissue-based; conditions: at 1 µg/mL, read-out: PB (converted)
[46] = Clearance in Beagle dog hepatocytes at 0.5 uM up to 60 mins by LC-MS/MS analysis; format: ADME, cell-based, Canis lupus familiaris, Hepatocyte; conditions: 1 h
[47] = Protein binding in rat kidneys at 1 ug/ml after 4 hrs by rapid equilibrium dialysis and LC-MS/MS analysis; format: ADME, tissue-based; conditions: rat kidney tissue, at 1 µg/mL, read-out: PB (converted)
[48] = Clearance in Wistar Han rat hepatocytes at 0.5 uM up to 60 mins by LC-MS/MS analysis; format: ADME, cell-based, Hepatocyte; conditions: 1 h
[49] = Bioavailability in Wistar Han rat at 0.227 mg/kg administered via nebulisation; format: ADME, organism-based; conditions: in vivo, inhaled or intranasal
Integrin alpha-V/beta-6 [50] = biological target: T2, Integrin alpha-V/beta-6 (Homo sapiens, UniProt P06756+P18564)
Target sequence in this assay (P06756 31-889 limits assumed): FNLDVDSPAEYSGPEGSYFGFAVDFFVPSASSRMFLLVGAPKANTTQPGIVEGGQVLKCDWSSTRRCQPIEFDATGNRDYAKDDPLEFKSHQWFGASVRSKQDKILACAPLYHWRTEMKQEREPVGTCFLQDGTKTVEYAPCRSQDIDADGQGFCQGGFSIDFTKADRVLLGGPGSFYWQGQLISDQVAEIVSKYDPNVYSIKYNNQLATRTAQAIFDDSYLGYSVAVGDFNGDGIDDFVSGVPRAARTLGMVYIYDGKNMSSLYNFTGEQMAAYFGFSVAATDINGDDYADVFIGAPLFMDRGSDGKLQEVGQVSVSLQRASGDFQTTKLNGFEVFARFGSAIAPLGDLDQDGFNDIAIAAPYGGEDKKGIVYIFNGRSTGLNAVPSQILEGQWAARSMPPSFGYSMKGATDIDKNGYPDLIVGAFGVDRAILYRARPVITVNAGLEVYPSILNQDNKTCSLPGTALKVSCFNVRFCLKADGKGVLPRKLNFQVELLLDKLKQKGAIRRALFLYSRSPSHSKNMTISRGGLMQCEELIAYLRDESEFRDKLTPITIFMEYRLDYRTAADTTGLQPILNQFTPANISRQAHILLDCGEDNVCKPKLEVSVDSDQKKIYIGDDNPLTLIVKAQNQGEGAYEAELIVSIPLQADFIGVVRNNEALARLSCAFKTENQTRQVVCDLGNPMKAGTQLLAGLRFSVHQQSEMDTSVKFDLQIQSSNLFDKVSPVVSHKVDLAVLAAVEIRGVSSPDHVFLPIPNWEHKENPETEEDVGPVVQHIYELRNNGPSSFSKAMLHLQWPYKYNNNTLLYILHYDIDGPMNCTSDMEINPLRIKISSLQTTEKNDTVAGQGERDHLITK
Target sequence in this assay (P06756 891-1048 limits assumed): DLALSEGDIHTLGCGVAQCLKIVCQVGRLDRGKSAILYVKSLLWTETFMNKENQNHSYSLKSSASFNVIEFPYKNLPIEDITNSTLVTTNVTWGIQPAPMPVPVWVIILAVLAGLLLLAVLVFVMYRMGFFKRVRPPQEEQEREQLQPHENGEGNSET
Target sequence in this assay (P18564 22-788 limits assumed): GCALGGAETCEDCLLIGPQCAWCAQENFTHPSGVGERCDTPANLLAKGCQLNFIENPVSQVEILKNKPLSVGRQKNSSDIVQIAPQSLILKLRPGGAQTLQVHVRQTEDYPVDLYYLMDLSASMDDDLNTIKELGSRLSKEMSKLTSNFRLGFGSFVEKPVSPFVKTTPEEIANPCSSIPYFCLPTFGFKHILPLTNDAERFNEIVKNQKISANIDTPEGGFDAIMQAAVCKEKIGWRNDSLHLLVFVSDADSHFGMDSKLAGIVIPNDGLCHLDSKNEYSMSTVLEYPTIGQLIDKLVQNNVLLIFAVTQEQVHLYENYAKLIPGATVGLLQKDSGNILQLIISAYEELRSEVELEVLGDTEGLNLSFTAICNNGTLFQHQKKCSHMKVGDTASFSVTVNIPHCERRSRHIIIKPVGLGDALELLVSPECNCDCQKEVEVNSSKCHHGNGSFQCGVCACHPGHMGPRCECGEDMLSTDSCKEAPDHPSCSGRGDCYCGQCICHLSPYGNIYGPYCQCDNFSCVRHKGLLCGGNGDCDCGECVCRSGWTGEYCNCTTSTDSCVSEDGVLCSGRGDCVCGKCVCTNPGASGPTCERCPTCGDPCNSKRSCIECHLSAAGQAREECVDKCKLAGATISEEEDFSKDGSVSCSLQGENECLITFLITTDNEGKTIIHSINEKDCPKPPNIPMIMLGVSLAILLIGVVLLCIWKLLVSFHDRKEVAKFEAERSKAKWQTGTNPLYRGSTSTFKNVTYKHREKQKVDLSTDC

Integrin alpha-V/beta-6 [51] = biological target: T2, Integrin alpha-V/beta-6; remark: listed apart in the source
Description: Binding affinity to human integrin alphaVbeta6 assessed as dissociation half life up to 48 hrs by liquid scintillation counting

T1 sequence (Q12809 whole entry): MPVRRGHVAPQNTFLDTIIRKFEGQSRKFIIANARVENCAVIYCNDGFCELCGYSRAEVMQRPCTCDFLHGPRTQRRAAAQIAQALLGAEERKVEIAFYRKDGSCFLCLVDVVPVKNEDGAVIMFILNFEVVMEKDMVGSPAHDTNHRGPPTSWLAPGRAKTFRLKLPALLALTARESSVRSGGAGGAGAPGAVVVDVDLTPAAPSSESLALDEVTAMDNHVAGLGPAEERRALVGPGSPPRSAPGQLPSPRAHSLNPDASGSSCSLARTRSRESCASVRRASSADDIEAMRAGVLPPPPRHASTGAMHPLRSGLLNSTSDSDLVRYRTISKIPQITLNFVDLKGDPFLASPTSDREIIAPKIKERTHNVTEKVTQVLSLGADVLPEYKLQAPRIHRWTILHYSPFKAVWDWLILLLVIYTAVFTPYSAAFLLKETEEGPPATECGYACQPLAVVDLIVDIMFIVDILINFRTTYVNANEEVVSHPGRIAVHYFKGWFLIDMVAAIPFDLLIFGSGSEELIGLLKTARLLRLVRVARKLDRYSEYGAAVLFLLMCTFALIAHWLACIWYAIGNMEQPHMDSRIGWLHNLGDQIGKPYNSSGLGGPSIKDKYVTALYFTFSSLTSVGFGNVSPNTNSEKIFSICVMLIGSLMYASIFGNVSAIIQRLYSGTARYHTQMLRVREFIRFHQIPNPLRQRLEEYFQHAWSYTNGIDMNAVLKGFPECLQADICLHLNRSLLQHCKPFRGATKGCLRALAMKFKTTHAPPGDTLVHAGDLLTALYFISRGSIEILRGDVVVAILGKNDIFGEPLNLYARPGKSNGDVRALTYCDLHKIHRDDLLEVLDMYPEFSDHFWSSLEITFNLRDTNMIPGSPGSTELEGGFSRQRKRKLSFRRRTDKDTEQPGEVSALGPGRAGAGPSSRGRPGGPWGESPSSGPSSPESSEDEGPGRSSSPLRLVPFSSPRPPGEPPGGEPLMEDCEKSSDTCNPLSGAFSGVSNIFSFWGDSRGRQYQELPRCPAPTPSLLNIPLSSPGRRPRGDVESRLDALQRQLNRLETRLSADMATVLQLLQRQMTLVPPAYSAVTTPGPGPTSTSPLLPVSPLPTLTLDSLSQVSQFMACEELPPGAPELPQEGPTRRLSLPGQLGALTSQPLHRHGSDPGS

logD (physchem): 2.07
Compound: O=C(O)C[C@H](CN1CC[C@@H](CCc2ccc3c(n2)NCCC3)C1)c1cccc(OC2COC2)c1
pIC50 [1]: < 4.50
pIC50 [2]: < 4.30

Compound: Cc1cc(C)n(-c2cccc([C@H](CC(=O)O)CN3CC[C@@H](CCc4ccc5c(n4)NCCC5)C3)c2)n1 [GSK-3008348 FREE BASE]
fraction unbound at 4 h, 1 ug/ml [3]: 0.4
CL (Rattus norvegicus [4]): 70%
Drug uptake [5]: Not Active
Cmax [6]: 3 to 9 ng/mL
Tmax (in vivo [7]): 12 min
fraction unbound at 4 h, 1 ug/ml [8]: 0.036
clearance [9]: 51 to 60 mL/min/kg
Vd [10]: 1.8 to 2.3 L/kg
Vd [11]: 2.6 to 4.7 L/kg
fraction unbound at 4 h, 1 ug/ml [12]: 0.083
Drug uptake [13]: Active
Tmax [14]: 15 to 30 min
fraction unbound at 4 h, 1 ug/ml [15]: 0.108
CLH [16]: 15.3 mL/min/g
Drug uptake [17]: 716 ng
half-life [18]: 72 to 324 min
fraction unbound at 4 h, 1 ug/ml [19]: 0.085
CLH [20]: 3 mL/min/g
CLH [21]: 0.55 mL/min/g
bioavailability [22]: < 2%
Drug uptake [23]: Active
bioavailability [24]: 27 to 34%
fraction unbound at 4 h, 1 ug/ml [25]: 0.1
Tmax (in vivo [26]): 30 to 120 min
bioavailability [27]: 21%
fraction unbound at 4 h, 1 ug/ml [28]: 0.294
clearance [29]: 25 to 33 mL/min/kg
concentration at 7 h [30]: 10 ng/g
half-life [31]: 48 to 54 min
fraction unbound at 4 h, 1 ug/ml [32]: 0.228
Drug uptake [33]: Active
CL (Canis familiaris [34]): 50%
bioavailability [35]: 40 to 63%
fraction unbound at 4 h, 1 ug/ml [36]: 0.08
Cmax [37]: 55 to 76 ng/mL
CLH [38]: < 0.86 mL/min/g
CL (Canis familiaris [39]): 21%
CLH [40]: < 0.53 mL/min/g
CLH [41]: 0.58 mL/min/g
Cmax [42]: 30 to 53 ng/mL
CL (Rattus norvegicus [43]): 24%
CL (Rattus norvegicus [44]): 15%
fraction unbound at 4 h, 1 ug/ml [45]: 0.211
CLH [46]: < 1.73 mL/min/g
fraction unbound at 4 h, 1 ug/ml [47]: 0.027
CLH [48]: 9.45 mL/min/g
bioavailability [49]: 54%

fraction unbound at 4 h, 1 ug/ml [36]: 0.53
logD (physchem): 1.77
Compound: Cc1nc(C)c(-c2cccc([C@H](CC(=O)O)CN3CC[C@@H](CCc4ccc5c(n4)NCCC5)C3)c2)[nH]1
pIC50 [1]: < 4.50
pIC50 [2]: < 4.30

pKi (Integrin alpha-V/beta-6 [50]): 8.70
T1/2 (Integrin alpha-V/beta-6 [51]): 5 min
Compound: N=C(N)Nc1cccc(C(=O)NCC(=O)NC(CC(=O)O)c2cc(Cl)cc(Cl)c2)c1 (stereo unspecified)
